According to patent US5498609A, “Benzoazepinyl compounds as oxytocin and vasopressin antagonists” (Otsuka Pharmaceutical Company, Limited, priority 1992, dated 1996):

Columns and labels:
V1 receptor = V1 receptor (Rattus norvegicus, UniProt P30560); assay: biochemical; settings: rat liver plasma membrane, [3H]-Arg-vasopressin, 37° C., 10 minutes, pH 8.0; read-out: IC50 in V1 receptor binding assay
Protocol: Experiment 1: V1 receptor binding assay
Using rat liver plasma membrane preparations prepared according to Ichihara's method [cf: Akira Ichihara, J. Bio. Chem., 258, 9283 (1983)], the plasma membrane (50000 dpm, 2×10^-10 M) of [^3 H]-Arg-vasopressin and a test compound (60 μg, 10^-8 to 10^-4 M) are incubated at 37° C. for 10 minutes in 100 mM Tris-HCl buffer (pH: 8.0) (250 μl) containing 5 mM MgCl2, 1 mM EDTA and 0.1% BSA. After incubation, the mixture is filtered three times using the glass filter (GF/F) so as to separate the membrane preparation binding with vasopressin and then washed with the buffer (5 ml). This glass filter is taken out and mixed with liquid scintillation cocktail. The amount of [^3 H]-vasopressin binding with the membrane is measured by liquid scintillation counter and the rate of the inhibitory effect of the test compound is estimated according to the following equation. [formula] C1 : The amount of [^3 H]-vasopressin binding with the membrane in the presence of the test compound (known amount)
(§1) C0 : The amount of [^3 H]-vasopressin binding with the membrane in the absence of the test compound
(§2) B1 : The amount of [^3 H]-vasopressin binding with the membrane in the presence of the excess amount of vasopressin (10^-6 M)
(§3) The results are expressed as IC50 value, which is the concentration of the test compound required to achieve the inhibitory effect in the rate of 50%.

V2 receptor = target: T1, V2 receptor (Rattus norvegicus, UniProt Q00788); assay: biochemical; settings: rat kidney plasma membrane, [3H]-Arg-vasopressin, 4° C., pH 8.0, read-out: IC50 in V2 receptor binding assay
T1 construct: Using rat kidney plasma membrane preparations; from tissue; host or cells: rat kidney plasma membrane
T1 sequence (Q00788 whole entry): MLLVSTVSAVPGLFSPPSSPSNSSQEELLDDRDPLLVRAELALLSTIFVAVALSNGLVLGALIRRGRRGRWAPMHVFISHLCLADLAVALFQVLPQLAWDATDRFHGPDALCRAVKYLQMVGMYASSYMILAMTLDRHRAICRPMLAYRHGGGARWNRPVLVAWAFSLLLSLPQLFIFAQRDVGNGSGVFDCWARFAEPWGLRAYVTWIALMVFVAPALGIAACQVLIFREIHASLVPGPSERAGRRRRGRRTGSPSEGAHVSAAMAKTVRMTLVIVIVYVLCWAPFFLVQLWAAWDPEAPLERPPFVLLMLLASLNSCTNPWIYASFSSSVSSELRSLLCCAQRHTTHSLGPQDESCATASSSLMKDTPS
Protocol: Experiment 2: V2 receptor binding assay
Using rat kidney plasma membrane preparations prepared according to O. Hechter's method [cf: J. Bio. Chem., 253, 3211 (1978)], the plasma membrane (100000 dpm, 4×10^-10 M) of [^3 H]-Arg-vasopressin and a test compound (0.6 mg, 10^-10 to 10^-5 M) are incubated at 4° C. for 3 hours in 100 mM Tris-HCl buffer (pH: 8.0) (250 μl) containing 5 mM MgCl2, 1 mM EDTA and 0.1% BSA. After incubation, the mixture is filtered using the glass filter (GF/F) so as to separate the membrane preparation binding with vasopressin and then washed twice with the buffer (each 5 ml). This glass filter is taken out and mixed with liquid scintillation cocktail. The amount of [^3 H]-vasopressin binding with the membrane is measured by liquid scintillation counter and the rate of the inhibitory effect of the test compound is estimated according to the following equation. [formula] C1 : The amount of [^3 H]-vasopressin binding with the membrane in the presence of the test compound (known amount)
as §1, §2, §3

Oxytocin receptor = target: T2, Oxytocin receptor (Rattus norvegicus, UniProt P70536); assay: Oxytocin receptor binding assay ([3H]-oxytocin, rat uterine muscle membrane); settings: for IC50: 25° C., one hour, pH 8.0
T2 construct: from tissue; host or cells: rat uterine muscle membrane (diethylstilbestrol-treated)
T2 sequence (P70536 1-388): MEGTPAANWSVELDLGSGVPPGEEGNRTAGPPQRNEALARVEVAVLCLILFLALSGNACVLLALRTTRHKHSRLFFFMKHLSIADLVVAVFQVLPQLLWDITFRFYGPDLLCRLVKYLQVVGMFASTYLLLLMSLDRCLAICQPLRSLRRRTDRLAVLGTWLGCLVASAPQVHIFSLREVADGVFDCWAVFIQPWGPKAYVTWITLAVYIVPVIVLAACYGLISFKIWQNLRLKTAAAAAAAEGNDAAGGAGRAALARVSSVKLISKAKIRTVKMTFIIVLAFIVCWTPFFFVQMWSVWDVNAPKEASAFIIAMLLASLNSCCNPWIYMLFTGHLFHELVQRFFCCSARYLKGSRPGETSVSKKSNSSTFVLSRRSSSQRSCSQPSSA
Protocol: Experiment 3: Oxytocin receptor binding assay
According to the method of W. Y. Chan et al. [Endocrinology, 126, 2095-2101 (1990)], uterine muscle is taken out from a rat which has previously been injected subcutaneously with diethylstilbestrol the day before, and homogenized, which is used as a membrane preparation. The membrane preparation (0.2 mg), [^3 H]-oxytocin (100000 dpm, 10^-9 M), a test compound (10^-9 -10^-5 M) are incubated at 25° C. for one hour in 100 mM Tris-HCl buffer (pH 8.0, 250 μl) containing a 5 mM MgCl2, 1 mM MEDTA and 0.1% BSA. The mixture is filtered through the glass filter (GF/B) so as to separate the membrane preparation binding with [^3 H]-oxytocin, and then, washed twice with the buffer (5 ml). This glass filter is put into a vial and mixed with Aquasole (liquid scintillation cocktail). The amount of [^3 H]-oxytocin binding with the membrane is measured by liquid scintillation counter. The rate of the inhibitory effect of the test compound is estimated according to the following equation.
Inhibitory Rate (%)=100-[(C1 -B)/(C0 -B)]×100
C1 : The amount of [^3 H]-oxytocin binding with the membrane in the presence of a test compound (known amount)
C0 : The amount of [^3 H]-oxytocin binding with the membrane in the absence of a test compound
B: The amount of [^3 H]-oxytocin binding with the membrane in the presence of the excess amount of oxytocin (5×10^-6 M).
The results are expressed as IC50 value, which is the concentration of the test compound required to achieve the inhibitory rate in the rate of 50%.

V1 receptor, sequence (P30560 whole entry): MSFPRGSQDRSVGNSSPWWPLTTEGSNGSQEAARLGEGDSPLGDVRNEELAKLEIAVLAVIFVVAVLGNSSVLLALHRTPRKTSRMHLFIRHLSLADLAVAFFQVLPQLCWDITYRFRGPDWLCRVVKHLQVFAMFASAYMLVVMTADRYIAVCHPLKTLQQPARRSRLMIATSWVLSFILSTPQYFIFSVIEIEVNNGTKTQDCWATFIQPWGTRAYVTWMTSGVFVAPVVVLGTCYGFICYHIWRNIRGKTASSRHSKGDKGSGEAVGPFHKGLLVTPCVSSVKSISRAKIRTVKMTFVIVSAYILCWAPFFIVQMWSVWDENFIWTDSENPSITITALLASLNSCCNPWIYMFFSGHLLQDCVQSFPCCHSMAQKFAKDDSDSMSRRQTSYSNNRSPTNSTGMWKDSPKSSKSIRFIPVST

SMILES	IC50 (V1 receptor) [nM]	IC50 (V2 receptor) [nM]	IC50 (Oxytocin receptor) [nM]	inhibition at 10 µM (Oxytocin receptor; 10^-5 M test compound, read-out: Inhibitory Rate (%) at 10^-5 M (oxytocin receptor binding assay)) [%]
CN1CCN(C(=O)COc2ccccc2C(=O)Nc2ccc(C(=O)N3CCCCc4cc(Cl)ccc43)cn2)CC1 [Compound of Ex. 88, 7-chloro-1-{6-[2-(4-methyl-1-piperazinyl)-carbonylmethoxybenzoylamino]nicotinoyl}-2,3,4,5-tetrahydro-1H-benzazepine]	26	200	4500	
Cc1ccccc1C(=O)Nc1ccc(C(=O)N2CCCC(CC(N)=O)c3cc(Cl)ccc32)cn1 (stereo not drawn) [Compound of Ex. 40]	44	9	740	
CC(=O)NC1CCN(CCOc2ccccc2C(=O)Nc2ccc(C(=O)N3CCCCc4cc(Cl)ccc43)cn2)CC1 [Compound of Ex. 92]	60	380		38
Cc1ccccc1C(=O)Nc1ccc(C(=O)N2CCCN(C)c3cc(Cl)ccc32)cn1 [Compound of Ex. 52]	51	22	1600	
C=CCOC1CCCN(C(=O)c2ccc(NC(=O)c3ccccc3Br)nc2)c2ccc(Cl)cc21 (stereo not drawn) [Compound of Ex. 76]	27	8	1500	
O=C(Nc1ccc(C(=O)N2CCCC(CCN3CCOCC3)c3cc(Cl)ccc32)cn1)c1ccccc1Cl (stereo not drawn) [Compound of Ex. 127]	29	5.9	680	
O=C1c2ccccc2OCCN1c1ccc(C(=O)N2CCCCc3cc(Cl)ccc32)cn1 [Compound of Ex. 94, 7-chloro-1-[6-(6,7-benzo-1-oxo-4-azepin-5-on-4-yl)nicotinoyl]-2,3,4,5-tetrahydro-1H-benzazepine]	42	36	840	

Now those with a lower IC50 (V1 receptor), led by results:

IC50 (V1 receptor) [nM]	IC50 (V2 receptor) [nM]	IC50 (Oxytocin receptor) [nM]	inhibition at 10 µM (Oxytocin receptor; 10^-5 M test compound, read-out: Inhibitory Rate (%) at 10^-5 M (oxytocin receptor binding assay)) [%]	SMILES
19	5.3	1320		O=C(Nc1ccc(C(=O)N2CCCC(CCN3CCCC3)c3cc(Cl)ccc32)cn1)c1ccccc1Cl (stereo not drawn) [Compound of Ex. 126, 7-chloro-5-[2-(1-pyrrolidinyl)ethyl]-1-[6-(2-chlorobenzoylamino)nicotinoyl]-2,3,4,5-tetrahydro-1H-benzazepine]
15	3	640		CC(=O)OCCC1CCCN(C(=O)c2ccc(NC(=O)c3ccccc3Cl)nc2)c2ccc(Cl)cc21 (stereo not drawn) [Compound of Ex. 122, 7-chloro-5-(2-acetyloxyethyl)-1-[6-(2-chlorobenzoylamino)nicotinoyl]-2,3,4,5-tetrahydro-1H-benzazepine]
13	10	290		Cc1ccccc1C(=O)Nc1ccc(C(=O)N2CCCCc3cc(Cl)ccc32)cn1 [Compound of Ex. 43]
11	5	1140		Cc1ccccc1C(=O)Nc1ccc(C(=O)N2CCCC(OCCN(C)C)c3cc(Cl)ccc32)cn1 (stereo not drawn) [Compound of Ex. 37, 7-chloro-5-(2-dimethylaminoethoxy)-1-[6-(2-methylbenzoylamino)nicotinoyl]-2,3,4,5-tetrahydro-1H-benzazepine]
9	3	280		CCNC(=O)CC1CCCN(C(=O)c2ccc(NC(=O)c3ccccc3Cl)nc2)c2ccc(Cl)cc21 (stereo not drawn) [Compound of Ex. 112]
5	160	1800		NC(=O)COc1ccccc1C(=O)Nc1ccc(C(=O)N2CCCCc3cc(Cl)ccc32)cn1 [Compound of Ex. 97]
5	7	260		O=C(Nc1ccc(C(=O)N2CCCCc3cc(Cl)ccc32)cn1)c1ccccc1Br [Compound of Ex. 45]
